In patent US20260008862A1, “Bispecific Anti-BCMA x Anti-CD3 Antibodies and Uses Thereof” (Regeneron Pharmaceuticals, Inc., priority 2018, published 2026):
pEC50: −log10 of the molar value. “Also recorded” adds a separate entry of the source. Where two headings read alike, the source gives them in different places.

How the values were obtained:
[1] = system: primary cynomolgus plasma cells (CD138+); test: Autologous T cell-mediated killing of cynomolgus monkey plasma cells; type: cell-based
Procedure: The specific killing of enriched CD138^+ human or cynomolgus monkey plasma cells by unstimulated autologous T cells was assessed by flow cytometry. Human or cynomolgus bone marrow aspirates and blood were provided within 24 hours of harvest. CD138^+ plasma cells were enriched from bone marrow by positive selection using the EasySep™ Human CD138^+ Positive Selection kit according to the manufacturer's instructions. PBMC from whole blood were isolated by density separation. PBMC were labeled with 1 μM of Vybrant™ CFDA-SE fluorescent tracking dye. […] At the end of the culture, surviving CD138^+ plasma cells were analyzed by flow cytometry, utilizing fixable LIVE/DEAD dye and plasma cell specific cell surface markers. Percent viability was normalized to control condition (plasma cells in the presence of PBMC only). T cell activation was assessed by flow cytometry. Activation is reported as the percentage of CD2^+/CD4^+ or CD2^+/CD8^+/CD16^− T cells expressing CD25. Percent T cell activation was normalized to control condition (plasma cells in the presence of PBMC only).

MC38/BCMA tumors = test: Syngenic MC38/BCMA tumor model, combination with anti-PD-1, second experiment (Example 21); type: in vivo, mouse; conditions: REGN5458 0.04 or 0.4 mg/kg plus anti-PD-1 4 mg/kg
Excerpt: Implantation and measurement of syngenic tumors: C57BL/6 mice that express human CD3deg in place of murine CD3deg (CD3-humanized mice) were subcutaneously implanted with 1×10^6 MC38 colon carcinoma cells that have been engineered to express full-length human BCMA (MC38/BCMA).
Calculation of syngenic tumor growth and inhibition: In order to determine tumor volume by external caliper, the greatest longitudinal diameter (length in mm) and the greatest transverse diameter (width in mm) were determined. Tumor volumes based on caliper measurements were calculated by the formula: Volume (mm^3)=(length×width^2)/2.

[2] = target: T1, primary cynomolgus CD8+ T cells (Macaca fascicularis, UniProt Q95LI5+Q95LI8); test: FACS binding to primary cynomolgus CD8+ T cells; conditions: median EC50, FACS binding
T1 construct: endogenous in cells; host or cells: primary cynomolgus CD8+ T cells (gated CD8+/CD16-)
Procedure: Flow cytometric analysis was utilized to determine binding of BCMA×CD3 bispecific antibodies to human and cynomolgus CD3 (Jurkat cells, mfCD3 engineered Jurkat cells, primary human CD8+ and cynomolgus CD8+ T cells). Briefly, 1e05 cells/well were incubated in the presence of FACS wash with block (PBS+1% filtered FBS+5% mouse serum) with a serial dilution of BCMA×CD3 and control antibodies for 30 minutes on ice. After incubation, the cells were washed twice with cold FACS wash (PBS+1% filtered FBS) and bound antibody was detected by incubating with Alexa647-conjugated anti-human secondary antibody on ice for an additional 30 minutes. Wells containing no antibody or secondary only were used as a control. For the detection of monkey and human T cells, a cocktail of human and cynomolgus cross-reactive antibodies to CD4, CD8 and CD16 was added to the anti-human secondary. After incubation, cells were washed, re-suspended in 200 μL cold PBS containing 1% filtered FBS and analyzed by flow cytometry on a BD FACS Canto II. Cells were gated by FSC-H by FSC-A to select singlet events, followed by side and forward scatters to select for live events. For monkey T cells, additional gating on CD8+/CD16− cells was performed.
EC50 values for FACS binding were calculated using 4-parameter non-linear regression analysis in Prism software.

[3] = Cynomolgus Monkey Donor 1 plasma cells, autologous T cells, maximum

T1 sequence (Q95LI5 22-198): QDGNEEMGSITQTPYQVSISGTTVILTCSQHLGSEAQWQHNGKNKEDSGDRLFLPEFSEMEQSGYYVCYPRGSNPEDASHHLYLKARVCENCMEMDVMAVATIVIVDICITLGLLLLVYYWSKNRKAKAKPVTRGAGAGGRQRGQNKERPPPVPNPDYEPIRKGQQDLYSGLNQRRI
T1 sequence (Q95LI8 22-171): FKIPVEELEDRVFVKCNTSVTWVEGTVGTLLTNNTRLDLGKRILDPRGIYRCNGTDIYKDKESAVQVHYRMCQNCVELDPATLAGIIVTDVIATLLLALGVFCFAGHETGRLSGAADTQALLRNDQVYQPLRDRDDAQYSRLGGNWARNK
T1 sequence (Q95LI7 23-181 partner): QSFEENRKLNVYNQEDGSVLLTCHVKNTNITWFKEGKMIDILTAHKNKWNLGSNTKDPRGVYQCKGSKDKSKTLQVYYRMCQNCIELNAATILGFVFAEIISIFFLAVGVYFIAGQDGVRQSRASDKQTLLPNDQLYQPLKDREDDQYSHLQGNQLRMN

In the case of “REGN5458: anti-BCMA×anti-CD3 bispecific antibody: BCMA HCVR of mAb21581 (SEQ 66), CD3 HCVR of mAb7221G (SEQ 90), common LCVR SEQ 82”, the “T Cell Activation (% CD25 Upregulation) CD4+ T cells % Activation” value [1, 3] was 9%, the “T Cell Activation (% CD25 Upregulation) CD8+ T cells % Activation” value [1, 3] was 12% and the pEC50 ([1]; Cynomolgus Monkey Donor 1 plasma cells, autologous T cells, read-out: T Cell Activation (% CD25 Upregulation) CD8+ T cells EC50) was 7.65. For the same substance, the “Cytotoxic Kill Max % Cytotoxicity” value ([1]; Cynomolgus Monkey Donor 1 plasma cells, autologous primary cynomolgus T cells, E:T 10:1, 72 hours) was 94%, the pEC50 ([1]; Cynomolgus Monkey Donor 1 plasma cells, autologous primary cynomolgus T cells, E:T 10:1, 72 hours, read-out: Cytotoxic Kill EC50) was 8.88 and the “T Cell Activation (% CD25 Upregulation) CD4+ T cells % Activation” value ([1]; Cynomolgus Monkey Donor 2 plasma cells, autologous T cells, maximum) was 16%. For the same substance, the pEC50 ([1]; Cynomolgus Monkey Donor 2 plasma cells, autologous T cells, read-out: T Cell Activation (% CD25 Upregulation) CD4+ T cells EC50) was ~7.74, the “Cytotoxic Kill Max % Cytotoxicity” value ([1]; Cynomolgus Monkey Donor 2 plasma cells, autologous primary cynomolgus T cells, E:T 10:1, 72 hours) was 91% and the “maximum percent T cell activation, CD4+ T cells” value ([1]; cynomolgus donor 1) was 9%. For the same substance, the “maximum percent T cell activation, CD8+ T cells” value ([1]; cynomolgus donor 1) was 12%, the maximum percent cytotoxicity ([1]; cynomolgus donor 1) was 94% and the pEC50 ([1]; cynomolgus donor 1, read-out: CD4+ T cell activation EC50) was 7.55. The pEC50 ([1]; cynomolgus donor 1, read-out: CD8+ T cell activation EC50) was 7.65, the pEC50 ([1]; cynomolgus donor 1, read-out: cytotoxicity EC50) was 8.88 and the “maximum percent T cell activation, CD4+ T cells” value ([1]; cynomolgus donor 2) was 16%. For the same substance, the maximum percent cytotoxicity ([1]; cynomolgus donor 2) was 91%, the pEC50 ([1]; cynomolgus donor 2, read-out: CD4+ T cell activation EC50) was 7.74 and the pEC50 ([1]; cynomolgus donor 2, read-out: CD8+ T cell activation EC50) was 7.12. The “anti-tumor efficacy of the combination (in words)” value (MC38/BCMA tumors) was “superior anti-tumor efficacy”.
For “REGN5459: anti-BCMA×anti-CD3 bispecific antibody: BCMA HCVR of mAb21581 (SEQ 66), CD3 HCVR of mAb7221G20 (SEQ 98), common LCVR SEQ 82”, the “Mf (Cyno) CD8+ T cells EC50 [M]” value [2] was “did not bind; also recorded: No binding”.
